Results reported in paper PMC13065503.

Test: Cys/Cys side-chain stapling of bis-cysteine Omomyc mutants by S-alkylation with bis(bromomethyl)arenes (1.25 eq): 4,4'-bis(bromomethyl)biphenyl for i,i+7 or 1,3-bis(bromomethyl)benzene (with 2 eq TCEP) for i,i+4; pH 8
Details: the molecule shown is the open-chain precursor, 100 mM aq NH4HCO3 pH 8 / 25% MeCN, 0.1 mM

Substance | ring closure, isolated yield (22-membered ring) [%] | ring closure, isolated yield (36-membered ring) [%]
H-AMADIGSMAC(SH)EENC(SH)KRRTHNVLERQRRNELKRSFFALRDQIPELENNEKAPKVVILKKATAYILSVQAETQKLISEIDLLRKQNEQLKHKLEQLRNSAA-OH | 38 | –
H-AMADIGSMATEENC(SH)KRRC(SH)HNVLERQRRNELKRSFFALRDQIPELENNEKAPKVVILKKATAYILSVQAETQKLISEIDLLRKQNEQLKHKLEQLRNSAA-OH | 26 | –
H-AMADIGSMATEENC(SH)KRRTHNC(SH)LERQRRNELKRSFFALRDQIPELENNEKAPKVVILKKATAYILSVQAETQKLISEIDLLRKQNEQLKHKLEQLRNSAA-OH | – | 67
H-AMADIGSMATEENVKRRTHNC(SH)LERQRRC(SH)ELKRSFFALRDQIPELENNEKAPKVVILKKATAYILSVQAETQKLISEIDLLRKQNEQLKHKLEQLRNSAA-OH | – | 69
H-AMADIGSMATEENVKRRTHNC(SH)LERQRRC(SH)ELKRSFFALRDQIPELENNEKAPKVVILKKATAYILSVQAETQKLISEIDLLRKQNEQLKHKLEQLRNSAAPAAKRVKLD-OH | – | 60
H-AMADIGSPAAKRVKLDMATEENVKRRTHNC(SH)LERQRRC(SH)ELKRSFFALRDQIPELENNEKAPKVVILKKATAYILSVQAETQKLISEIDLLRKQNEQLKHKLEQLRNSAA-OH | – | 46
